Measured values reported in paper PMC3763632, “Radiosynthesis and Radiotracer Properties of a 7-(2-[^18F]Fluoroethoxy)-6-methoxypyrrolidinylquinazoline for Imaging of Phosphodiesterase 10A with PET” (Pharmaceuticals, 2012).
Entries after “also recorded” stand apart in the source; their conditions may differ.

System: PDE10A
Test: Ex vivo autoradiography of mouse brain
Format: in vivo, CD-1 mice
Settings: 30 min p.i. of 100 MBq
Procedure: To determine the regional distribution of [^18F]IV in the brain in vivo, we also performed ex vivo autoradiography. In CD-1 mice brain, heterogeneous distribution of radioactivity was noticed at 30 min after [^18F]IV injection (Figure 5), but the localization of radioligand did neither correlate with the spatial distribution of PDE10A in the brain known from immunohistochemical and in vivo PET studies nor with the pattern of [^18F]IV binding in the brain in vitro (Figure 3A). […] The discrepancy in the pattern of [^18F]IV distribution between in vitro and ex vivo autoradiography most probably indicates off-target binding of the radiotracer in combination with to low target affinity. While the dissociation rate underlying low affinity towards PDE10A allows a detection in the closed system of an in vitro study, the dynamic processes in vivo make binding of [^18F]IV towards PDE10A non-detectable. […]
Ex vivo autoradiography on the distribution of [^18F]IV in mouse brain (n = 1) was performed on sagittal brain sections obtained at 30 min after i.v. injection of 100 MBq of [^18F]IV. […] After exposition to ^18F-sensitive storage phosphor screens for 60 min, image plates were analyzed using a bioimaging analyzer system (see above).

COc1cc2c(N3CC[C@@H](Oc4cnc5ccccc5n4)C3)ncnc2cc1OCC[18F] [[^18F]IV, (R)-7-(2-[^18F]Fluoroethoxy)-6-methoxy-4-(3-(quinoxalin-2-yloxy)pyrrolidin-1-yl)quinazoline]
accumulation in PDE10A-expressing brain regions (caudate putamen, olfactory tubercle, cerebellum): no target specific accumulation; also recorded: free of significant accumulation
